{"source": "patent US12035738B2", "about": "“Low calorie food compositions” (Mars, Incorporated, priority 2015, dated 2024)", "key": {"[1]": {"design": "species or system humans", "conditions": "in vivo", "procedure": "A panel of 10 assessors were used to evaluate sensory differences between cellobiose containing (2 levels; 75% and 100% sucrose substitution) and standard chocolate.\nThe maximum amount of cellobiose consumed during one 3 hour sensory session was set at 20 g and 8 g respectively (100% cellobiose sample contained 49.5 g cellobiose/100 g, 75% cellobiose sample contained 34.7 g/100 g and 60% inulin sample contained 29.7 g inulin/100 g).\nFor each attribute, panelists were presented with all samples (˜3.5 g sample size) allowing comparative assessment. Panelists first determined rank order and then assigned ratings using separate line scales for each sample/attribute.\nAll samples were presented in 2 oz plastic pots labelled with random 3 digit codes. Panelists were provided with unsalted cracker (Rakusen, U.K.), green apple slices and mineral water (Evian, France) for palate cleansing. Attributes were assessed in blocks of 2 followed by 15 mins rest breaks.\n(§1) A number of gastro-intestinal symptoms were reported by the panelists in the 24 hours following the sensory sessions, the most common being flatulence (10/10 on at least 1 occasion) and bowel sounds (8/10 on at least 1 occasion). Some degree of […] discomfort was reported by 7/10 panelists on 1 or more occasions and 5 out of the 10 panelists suffered diarrhea following 1 or more sessions. A previous tolerability study carried out using cellobiose (H-09-2011) examined GI effects when cellobiose was delivered in a water based solution and used only male subjects aged between 18-35 yrs. The number and severity of symptoms seen in this study was not expected given the previous tolerability results where cellobiose was consumed as a drink (10, 20, 30 or 50 g of cellobiose was dissolved in 200 ml of hot water and allowed to cool to room temperature overnight). […] With the consumption of 30 g, 4 people (31%) experienced short duration abdominal pain (ranging in severity from 1 to 3 out of 5), 2 people (15%) reported mild flatulence (severity 1 out of 5) and one person reported this at a severity of 3 out of 5. […] Six subjects (46%) reported flatulence (range 1-4 out of 5), and 4 experienced abdominal pain (severity between 1-2 out of 5). Three quarters of subjects were happy to take part in future studies involving the ingestion of cellobiose, even at the highest dose."}, "[2]": {"experiment": "Previous tolerability study (H-09-2011), cellobiose consumed as a drink in water based solution", "format": "in vivo, humans", "procedure": "as §1"}, "[3]": {"conditions": "administered to humans as a drink; cited from earlier work"}, "[4]": {"conditions": "30 g cellobiose, severity 1 out of 5"}}, "data": [{"smiles": "O=C[C@H](O)[C@@H](O)[C@H](O[C@@H]1O[C@H](CO)[C@@H](O)[C@H](O)[C@H]1O)[C@H](O)CO", "note": "[cellobiose]", "values": [{"measurement": "panelists reporting bowel sounds", "setting": "[1]; human, 24 h", "result": "8/10"}, {"measurement": "panelists reporting flatulence", "setting": "[1]; human, 24 h", "result": "10/10"}, {"measurement": "panelists reporting some degree of abominable discomfort", "setting": "[1]; human, 24 h", "result": "7/10"}, {"measurement": "panelists who suffered diarrhea", "setting": "[1]; human, 24 h", "result": "5 out of the 10 panelists"}, {"measurement": "Symptoms (y/n)", "setting": "[1]", "result": "Y"}, {"measurement": "undesirable side effects", "setting": "[1]", "result": "stomach cramps, nausea, diarrhea and loss of appetite"}, {"measurement": "abdominal symptoms reported", "setting": "[2]; 10 g cellobiose in 200 ml water", "result": "mild or no abdominal symptoms"}, {"measurement": "abdominal symptoms reported", "setting": "[2]; 20 g cellobiose in 200 ml water", "result": "mild or no abdominal symptoms"}, {"measurement": "people who experienced short duration abdominal pain", "setting": "[2]; 30 g cellobiose", "result": 4, "unit": "people"}, {"measurement": "persons who reported flatulence at a severity of 3 out of 5", "setting": "[2]; 30 g cellobiose", "result": "one"}, {"measurement": "severity of mild flatulence", "setting": "[2]; 30 g cellobiose", "result": "1 out of 5"}, {"measurement": "share of people with short duration abdominal pain", "setting": "[2]; 30 g cellobiose", "result": 31, "unit": "%"}, {"measurement": "people who reported mild flatulence", "setting": "[2]; [4]", "result": 2, "unit": "people"}, {"measurement": "share of people with mild flatulence", "setting": "[2]; [4]", "result": 15, "unit": "%"}, {"measurement": "abdominal pain severity", "setting": "[2]; 50 g cellobiose", "result": "1-2 out of 5"}, {"measurement": "flatulence severity range", "setting": "[2]; 50 g cellobiose", "result": "1-4 out of 5"}, {"measurement": "persons who reported diarrhea in the first 24 h", "setting": "[2]; 50 g cellobiose", "result": 1}, {"measurement": "persons with a single episode of diarrhea 2 h after consuming", "setting": "[2]; 50 g cellobiose", "result": 1, "unit": "person"}, {"measurement": "share of subjects who reported flatulence", "setting": "[2]; 50 g cellobiose", "result": 46, "unit": "%"}, {"measurement": "subjects who experienced abdominal pain", "setting": "[2]; 50 g cellobiose", "result": 4}, {"measurement": "subjects who reported flatulence", "setting": "[2]; 50 g cellobiose", "result": "Six"}, {"measurement": "unpleasant side effects", "setting": "[3]", "result": "not observed to such a great degree"}]}]}
